Data published in patent EP0539170A1, “Benzodiazepine derivatives and their use as antagonists of cholecystokinin and/or gastrin receptors” (priority 1991, dated 1993).

Target: T1, CCK Receptor (Pancreas) (Rattus norvegicus, UniProt P30551)
T1 construct: The whole pancreas was dissected free of fat tissue and was homogenized; from tissue; host or cells: rat pancreas membrane homogenate
T1 sequence (P30551 1-444): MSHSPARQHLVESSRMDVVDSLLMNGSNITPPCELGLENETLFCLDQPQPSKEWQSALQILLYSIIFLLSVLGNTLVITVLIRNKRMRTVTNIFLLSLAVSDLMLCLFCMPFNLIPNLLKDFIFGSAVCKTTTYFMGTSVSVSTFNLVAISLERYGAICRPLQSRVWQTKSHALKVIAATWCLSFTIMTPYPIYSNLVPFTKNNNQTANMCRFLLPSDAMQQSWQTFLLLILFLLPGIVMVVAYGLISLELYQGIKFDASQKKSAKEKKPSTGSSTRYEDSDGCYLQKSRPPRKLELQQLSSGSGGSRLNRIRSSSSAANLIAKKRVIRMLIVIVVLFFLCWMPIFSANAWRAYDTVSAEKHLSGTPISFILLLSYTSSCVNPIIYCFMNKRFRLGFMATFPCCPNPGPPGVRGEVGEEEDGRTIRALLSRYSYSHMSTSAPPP
Assay: CCK Receptor Binding (Pancreas), inhibition of specific 125I-CCK-8 binding
Design: species or system Sprague-Dawley rats
Conditions: rat whole pancreas membranes; 50 pM 125I-CCK-8; 25°C for 2 hours
Procedure: CCK-8 sulphated was radiolabelled with ¹²⁵I-Bolton Hunter reagent (2000 Ci/mmole). Receptor binding was performed according to Chang and Lotti (Proc. Natl. Acad. Sci. 83, 4923-4926, 1986) with minor modifications.
Male Sprague-Dawley rats (150-200g) were sacrificed by decapitation. The whole pancreas was dissected free of fat tissue and was homogenized in 25 volumes of ice-cold 10 mM N-2-hydroxyethyl-piperazine-N′-2-ethane sulphonic acid (HEPES) buffer with 0.1% soya bean trypsin inhibitor (pH 7.4 at 25°C) with a Kinematica Polytron. The homogenates were centrifuged at 47,800 g for 10 min. Pellets were resuspended in 10 volumes of binding assay buffer (20mM (HEPES)), 1mM ethylene glycol-bis-(β-aminoethylether-N,N′-tetraacetic acid) (EGTA), 5mM MgCl₂, 150 mM NaCl, bacitracin 0.25 mg/ml, soya bean trypsin inhibitor 0.1 mg/ml, and bovine serum albumin 2 mg/ml pH 6.5 at 25°C) using a Teflon (trademark) homogenizer, 15 strokes at 500 rpm. The homogenate was further diluted in binding assay buffer to give a final concentration of 0.5 mg original wet weight/1 ml buffer. […] All assays were run in duplicate. The reaction mixtures were incubated at 25°C for 2 hours and the reaction terminated by rapid filtration (Brandell 24 well cell harvester) over Whatman GF/C filters, washing 3 x 4 mls with ice-cold 100 Mm NaCl. The radioactivity on the filters was counted with a LKB gamma counter.
Drug displacement studies were performed with at least 10 concentrations of compounds of Formula I and the IC₅₀ values were determined by regression analysis IC₅₀ refers to the concentration of the compound required to inhibit 50% of specific binding of ¹²⁵I-CCK-8.

SMILES	IC50
CCCN1C(=O)C(NC(=O)Nc2ccc3c(c2)CCC3)N=C(N2CCN(C)CC2)c2ccccc21 (racemic) [Example 33, N-[3(R,S)-2,3-Dihydro-5-(4-methylpiperazin-1-yl)-2-oxo-1-propyl-1H-1,4-benzodiazepin-3-yl]-N′-[5-indanyl] urea]	> 3000 nM
CCCN1C(=O)C(NC(=O)Nc2cccc(C)c2)N=C(N2CCNCC2)c2ccccc21 (racemic) [Example 36, N-[3(R,S)-2,3-Dihydro-2-oxo-5-(piperazin-1-yl)-1-propyl-1H-1,4-benzodiazepin-3-yl]-N′-[3-methylphenyl] urea]	> 3000 nM
CCCN1C(=O)C(NC(=O)Nc2cccc(C)c2)N=C(N2CCN(CC)CC2)c2ccccc21 (racemic) [Example 37, N-[3(R,S)-2,3-Dihydro-5-(4-ethylpiperazin-1-yl)-2-oxo-1-propyl-1H-1,4-benzodiazepin-3-yl]-N#MIN#-[3-methylphenyl] urea]	3730 nM
CCCN1C(=O)C(NC(=O)Nc2cccc(C)c2)N=C(N2CCN(C)CC2)c2cc(C)ccc21 (racemic) [Example 38, N-(3(R,S)-2,3-Dihydro-7-methyl-5-(4-methylpiperazin-1-yl)-2-oxo-1-propyl-1H-1,4-benzodiazepin-3-yl]-N′-[3-methylphenyl]urea]	1600 nM
CCCN1C(=O)C(NC(=O)Nc2cccc(NC(C)=O)c2)N=C(N2CCN(C)CC2)c2ccccc21 (racemic) [Example 39, N-[3(R,S)-2,3-Dihydro-5-(4-methylpiperazin-1-yl)-2-oxo-1-propyl-1H-1,4-benzodiazepin-3-yl]-N#MIN#-[3-(acetylamino)phenyl] urea]	> 3000 nM
CCCN1C(=O)C(NC(=O)Nc2cccc(C)c2)N=C(N2CCN(C)CC2)c2ccc(C)cc21 (racemic) [Example 42, N-[3(R,S)-2,3-Dihydro-8-methyl-5-(4-methylpiperazin-1-yl)-2-oxo-1-propyl-1H-1,4-benzodiazepin-3-yl]-N′-[3-methylphenyl] urea]	711 nM
Cc1cccc(NC(=O)NC2N=C(N3CCCCCCC3)c3ccccc3N(C)C2=O)c1 (racemic) [Example 43, N-[3(R,S)-2,3-Dihydro-5-(heptamethyleneimin-1-yl)-1-methyl-2-oxo-1H-1,4-benzodiazepin-3-yl]-N#MIN#-[3-methylphenyl] urea]	18.4 nM
CCCN1C(=O)C(NC(=O)Nc2cccc(C)c2)N=C(N2CCCCC2)c2ccccc21 (racemic) [Example 44, N-[3(R,S)-2,3-Dihydro-2-oxo-5-(piperidin-1-yl)-1-propyl-1H-1,4-benzodiazepin-3-yl]-N′-[3-methylphenyl] urea]	120 nM
CCCN1C(=O)C(NC(=O)Nc2cccc(C)c2)N=C(N2CCN(C)CC2)c2ccc(N(C)C)cc21 (racemic) [Example 45, N-[3(R,S)-2,3-Dihydro-8-dimethylamino-5-(4-methylpiperazin-1-yl)-2-oxo-1-propyl-1H-1,4-benzodiazepin-3-yl]-N′-[3-methylphenyl] urea]	956 nM
CN1C(=O)C(NC(=O)Nc2ccc3c(c2)CCC3)N=C(N2CCCCCC2)c2ccccc21 (racemic) [Example 46, N-[3(R,S)-2,3-Dihydro-5-(homopiperidin-1-yl)-1-methyl-2-oxo-1H-1,4-benzodiazepin-3-yl]-N′-[5-indanyl] urea]	28.2 nM
CCCN1C(=O)C(NC(=O)Nc2cccc(C)c2)N=C(N2CCCCCC2)c2ccccc21 (racemic) [Example 47, N-[3(R,S)-2,3-Dihydro-5-(homopiperidin-1-yl)-2-oxo-1-propyl-1H-1,4-benzodiazepin-3-yl]-N′-[3-methylphenyl] urea]	23.4 nM
CN1C(=O)C(NC(=O)Nc2cccc(C(F)(F)F)c2)N=C(N2CCCCCC2)c2ccccc21 (racemic) [Example 48, N-[3(R,S)-2,3-Dihydro-5-(homopiperidin-1-yl)-1-methyl-2-oxo-1H-1,4-benzodiazepin-3-yl]-N′-[3-trifluoromethylphenyl] urea]	31.4 nM
CN(C)c1cccc(NC(=O)NC2N=C(N3CCCCCC3)c3ccccc3N(C)C2=O)c1 (racemic) [Example 49, N-[3(R,S)-2,3-Dihydro-5-(homopiperidin-1-yl)-1-methyl-2-oxo-1H-1,4-benzodiazepin-3-yl]-N′-[3-(dimethylamino)phenyl] urea]	57.2 nM
CN1C(=O)C(NC(=O)Nc2ccc(C(C)(C)C)cc2)N=C(N2CCCCCC2)c2ccccc21 (racemic) [Example 50, N-[3(R,S)-2,3-Dihydro-5-(homopiperidin-1-yl)-1-methyl-2-oxo-1H-1,4-benzodiazepin-3-yl]-N′-[4-t-butylphenyl] urea]	815 nM
CCCN1C(=O)C(NC(=O)Nc2ccc(N(C)C)cc2)N=C(N2CCN(C)CC2)c2ccccc21 (racemic) [Example 53, N-[3(R,S)-2,3-Dihydro-5-(4-methylpiperazin-1-yl)-2-oxo-1-propyl-1H-1,4-benzodiazepin-3-yl]-#′-[4-(dimethylamino)phenyl] urea]	> 3000 nM
CC(C)c1ccc(NC(=O)NC2N=C(N3CCCCCC3)c3ccccc3N(C)C2=O)cc1 (racemic) [Example 54, N-[3(R,S)-2,3-Dihydro-5-(homopiperidin-1-yl)-1-methyl-2-oxo-1H-1,4-benzodiazepin-3-yl]-N′-[4-isopropylphenyl] urea]	399 nM
CCCN1C(=O)C(NC(=O)Nc2cccc(C)c2)N=C(N2CCSCC2)c2ccccc21 (racemic) [Example 55, N-[3(R,S)-2,3-Dihydro-2-oxo-1-propyl-5-(thiomorpholin-4-yl)-1H-1,4-benzodiazepin-3-yl]-N′-[3-methylphenyl] urea]	337 nM
CCCN1C(=O)C(NC(=O)Nc2ccc3c(c2)N(C)CC3)N=C(N2CCN(C)CC2)c2ccccc21 (racemic) [Example 56, N-[3(R,S)-2,3-Dihydro-5-(4-methylpiperazin-1-yl)-2-oxo-1-propyl-1H-1,4-benzodiazepin-3-yl]-N#MIN#-[1-methyl-6-indolinyl] urea]	> 3000 nM
CN1C(=O)C(NC(=O)Nc2ccc(F)c(F)c2)N=C(N2CCCCCC2)c2ccccc21 (racemic) [Example 57, N-[3(R,S)-2,3-Dihydro-5-(homopiperidin-1-yl)-1-methyl-2-oxo-1H-1,4-benzodiazepin-3-yl]-N′-[3,4-difluorophenyl] urea]	16.7 nM
CN1C(=O)C(NC(=O)Nc2cccc(F)c2)N=C(N2CCCCCC2)c2ccccc21 (racemic) [Example 60, N-[3(R,S)-2,3-Dihydro-5-(homopiperidin-1-yl)-1-methyl-2-oxo-1H-1,4-benzodiazepin-3-yl]-N′-[3-fluorophenyl] urea]	7.16 nM
Cc1cccc(NC(=O)NC2N=C(N3CCCCCCCC3)c3ccccc3N(C)C2=O)c1 (racemic) [Example 61, N-[3(R,S)-2,3-Dihydro-1-methyl-5-(octamethyleneimin-1-yl)-2-oxo-1H-1,4-benzodiazepin-3-yl]-N#MIN#-[3-methylphenyl] urea]	36.1 nM
CN1C(=O)C(NC(=O)Nc2cccc(-c3cc(=O)c(O)co3)c2)N=C(N2CCCCCC2)c2ccccc21 (racemic) [Example 62, N-[3(R,S)-2,3-Dihydro-5-(homopiperidin-1-yl)-1-methyl-2-oxo-1H-1,4-benzodiazepin-3-yl]-N′-[3-(5-hydroxy-4-pyron-2-yl)phenyl] urea]	21.4 nM
CCc1cccc(NC(=O)NC2N=C(N3CCCCCC3)c3ccccc3N(C)C2=O)c1 (racemic) [Example 63, N-[3(R,S)-2,3-Dihydro-5-(homopiperidin-1-yl)-1-methyl-2-oxo-1H-1,4-benzodiazepin-3-yl]-N′-[3-ethylphenyl] urea]	4.39 nM
CCN1C(=O)C(NC(=O)Nc2cccc(C)c2)N=C(N2CCCCCC2)c2ccccc21 (racemic) [Example 64, N-[3(R,S)-2,3-Dihydro-1-ethyl-5-(homopiperidin-1-yl)-2-oxo-1H-1,4-benzodiazepin-3-yl]-N′-[3-methylphenyl] urea]	3.59 nM
Cc1cccc(NC(=O)NC2N=C(N3CCSCC3)c3ccccc3N(C)C2=O)c1 (racemic) [Example 65, N-[3(R,S)-2,3-Dihydro-1-methyl-2-oxo-5-(thiomorpholin-4-yl)-1H-1,4-benzodiazepin-3-yl]-N′-[3-methylphenyl] urea]	17.2 nM
CN1C(=O)C(NC(=O)Nc2ccccc2)N=C(N2CCCCCC2)c2ccccc21 (racemic) [Example 66, N-[3(R,S)-2,3-Dihydro-5-(homopiperidin-1-yl)-1-methyl-2-oxo-1H-1,4-benzodiazepin-3-yl]-N′-phenyl urea]	14.2 nM
